Results from patent publication US12097232B1, “Method of preventing cadmium-induced renal toxicity using a plant product derived from Achillea millefolium L” (KING FAISAL UNIVERSITY, priority 2024, dated 2024).

Columns and labels:
Assay type in all cases: in vivo, Wistar rats
[1] = Kidney weight in CdCl2-induced renal toxicity rats
Method: (§1) Thirty-two adult male Wistar rats (8-9 weeks old, weighing, 160-180 g) were purchased from the Experimental Animal Research Centre, King Saud University, Riyadh, KSA.
All the animals were maintained with typical laboratory food and water ad libitum in a ventilated cage system (12 h light/dark cycle, 20.3-23.1° C.) throughout the whole experiment.
(§2) To study the renal protective activity of Achillea millefolium essential oil (AEO) on CdCl2-induced renal toxicity, rats were randomly divided into four groups (n=8 per group). Control rats were orally administered saline 1 h before injected intraperitoneally (i.p.) with 0.9% NaCl (physiological saline) daily for 5 days. The CdCl2 group was orally administered saline 1 h before injected i.p. with 6.5 mg/kg CdCl2 daily for 5 days. The AEO group was orally administered AEO (200 mg/kg) 1 h before injected with 0.9% NaCl (physiological saline) daily for 5 days. The AEO+CdCl2 group was orally administered AEO (100 mg/kg) 1 h before injected 6.5 mg/kg CdCl2 i.p. daily for 5 days. CdCl2 was dissolved in physiological saline.
(§3) Rats were euthanized (decapitation) 24 hours after the final dosing. The kidneys were dissected, weighed to obtain the weight and then divided into 2 parts. […] The 2nd part was kept at −80° C. for quantitative real-time qRT-PCR.

[2] = test system: kidney function biomarkers (BUN, uric acid, creatinine, NAG); assay: Kidney function biomarkers in CdCl2-induced renal toxicity
Method: as §1, §2
(§4) Rats were euthanized (decapitation) 24 hours after the final dosing. The kidneys were dissected, weighed to obtain the weight and then divided into 2 parts. The 1st part was homogenized in ice-cold 10 mM phosphate buffer (pH 7.4) to produce a 10% (w/v) homogenate for biochemical analysis. The 2nd part was kept at −80° C. for quantitative real-time qRT-PCR.
Biomarkers of kidney function, i.e., Blood urea nitrogen (BUN), uric acid, and creatinine, were evaluated by using specific commercial kits. N-acetyl-β-D-glucosaminidase (NAG) is a marker of tubular toxicity was assessed using ELISA kit.

[3] = test system: Caspase 3, Caspase 9, Bax, Bcl2; conditions: CdCl2 renal injury vs control
Method: as §1, §2, §4
(§5) Gene expression for the TLR pathway, High-mobility group box 1 (HMBG1), Toll-Like Receptor 4 (TLR4), myeloid differentiation primary response gene 88 (MYD88), and Nuclear factor kappa B (NFκB) were quantified via real-time PCR (qPCR) consuming the primers' sequences, shown in Table 1, in agreement with the method described elsewhere. Briefly, RNA was isolated and purified using a Trizol reagent kit (Invitrogen, Carlsbad, CA, USA), then a reverse transcription polymerase chain reaction (RT-PCR) kit (TaKaRa, Kusatsu, Shiga, Japan) to reverse transcription reaction following the manufacturer's procedures. qPCR was applied using a SYBR ExScript RT-PCR kit, and quantification examinations were accomplished via an Opticon-2 Real-time PCR reactor (MJ Research, Capital Court, Reno, NV, USA). qPCR results were obtained using Step PE Applied Biosystems (Waltham, MA, USA) software. Relative gene expression data were calculated as mentioned earlier by the Livak and Schmittgen method (2−^ΔΔCq2) and presented as a fold change.
The actions of AEO administration on the apoptotic markers, such as caspase-3 and caspase 9 were evaluated.

[4] = test system: TNF-α, IFN-γ, MCP-1, IL-10; assay: Renal inflammatory mediators by ELISA in Cd-induced renal toxicity; conditions: CdCl2 group vs control
Method: as §1, §2, §4
Inflammation markers including interferon gamma (IFN-γ), monocyte chemoattractant protein-1 (MCP-1), tumor necrosis factor alpha (TNF-α), and interleukin 10 (IL-10) were measured using ELISA kits.

[5] = test system: HMGB1, TLR4, MYD88, NFκB gene expression; conditions: renal
Method: as §1, §2, §4, §5

MDA, SOD, CAT, GPx, GSH = assay: Renal oxidative stress markers in Cd-induced renal toxicity
Method: as §1, §2, §4
Lipid peroxidation was assessed according to the amount of malondialdehyde (MDA). The content of reduced glutathione (GSH) was evaluated and the activities of Catalase (CAT), Superoxide dismutase (SOD) and glutathione peroxidase (GPx) were estimated using kits.

[6] = Cd concentration in renal tissue by atomic absorption spectrophotometry
Method: as §1, §2, §3
The Cd concentrations in renal tissues were estimated as mentioned before. […] The levels of metal were measured by atomic absorption spectrophotometry in a graphite furnace at 228.8 nm. The Cd values are expressed as microgram per gram of wet renal tissue.

[7] = CdCl2 group: CdCl2 6.5 mg/kg i.p. daily 5 days, mean ± SD
[8] = Cd experienced animals vs control
[9] = renal, CdCl2 administered rats vs control

In the case of [Cl][Cd][Cl] [CdCl2], the “kidney weight (in words)” value ([1]; CdCl2 group vs control) is reported as “reduction in kidney weight”, the Kidney wt. [1, 7] is reported as 1.43 ± 0.11 g and the “BUN level (in words)” value ([2]; Cd-exposed rats vs control) is reported as “increases”. The “serum creatinine level (in words)” value ([2]; Cd-exposed rats vs control) was “increases”, the “uric acid level (in words)” value ([2]; Cd-exposed rats vs control) was “increases” and the BUN [2, 7] was 40.66 ± 3.15 mg/dL. For the same compound, the NAG [2, 7] was 33.2 ± 6.8 mIU/ml, the Uric acid [2, 7] was 4.54 ± 0.15 mg/dL and the Creatinine ([2]; serum, CdCl2 group: CdCl2 6.5 mg/kg i.p. daily 5 days, mean ± SD) was 0.68 ± 0.01 mg/dL. For the same compound, the “caspase 3 renal content” value [3] was “augmented”, the “caspase 9 renal content” value [3] was “augmented” and the Bax gene expression ([3]; renal) was “augmented”. For the same compound, the Bcl2 gene expression ([3]; renal) was “diminished”, the IFN-γ renal level [4] was “amplified” and the MCP-1 renal level [4] was “amplified”. For the same compound, the TNF-α renal level [4] was “amplified”, the IL-10 level ([4]; renal) was “declined” and the “HMGB1 mRNA expression level” value ([5]; Cd administered rats vs control) was “increased”. The “MYD88 mRNA expression” value [5, 8] was “amplified significantly”, the “TLR4 mRNA expression” value [5, 8] was “amplified significantly” and the “nuclear NFκB p65 level” value ([5]; Cd group vs control) was “significantly augmented”. The “renal GSH content” value (MDA, SOD, CAT, GPx, GSH; CdCl2 group vs control) was “obvious reduction”, the CAT activity (MDA, SOD, CAT, GPx, GSH; [9]) was “considerably declined” and the GPx activity (MDA, SOD, CAT, GPx, GSH; [9]) was “considerably declined”. The SOD activity (MDA, SOD, CAT, GPx, GSH; [9]) was “considerably declined”, the “MDA level (lipid peroxidation)” value (MDA, SOD, CAT, GPx, GSH; renal, CdCl2 group vs control) was “augmented” and the “Cd concentration in renal tissue (in words)” value ([6]; CdCl2 group vs control) was “significantly increased”. The Cd concentration [6, 7] was 0.95 ± 0.01 μg/g renal tissue.
